Assay results: ChEMBL document CHEMBL1201862, “PubChem BioAssay data set” (2004)
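Dose response: 5 concentrations. Exposure: 48 h. Format: 96-well plates. Endpoint: linear interpolation; highest concentration if not reached. GI50 marks 50% less growth.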 Calls of active or inactive are those of the source. Cut-off read from the data, not from the text of the source: active = GI50 up to about 1.1 µM and inactive = higher.

Legend:
Test in all cases: NCI-60 cell line screen, 48 h
HL-60 = tested on: HL-60
SN12C = tested on: SN12C
RXF 393 = tested on: RXF 393
Malme-3M = tested on: Malme-3M
UACC-62 = tested on: UACC-62
COLO 205 = tested on: COLO 205
SW-620 = tested on: SW-620
A498 = tested on: A498
LOX IMVI = tested on: LOX IMVI
DLD-1 = tested on: DLD-1
ACHN = tested on: ACHN
SK-OV-3 = tested on: SK-OV-3
HCT-15 = tested on: HCT-15
HCT-116 = tested on: HCT-116
SK-MEL-28 = tested on: SK-MEL-28
MDA-N = tested on: MDA-N
T47D = tested on: T47D
SR = tested on: SR
MCF7 = tested on: MCF7
MDA-MB-231 = tested on: MDA-MB-231

| Structure (SMILES) | GI50 (HL-60) | GI50 (SN12C) | GI50 (RXF 393) | GI50 (Malme-3M) | GI50 (UACC-62) | GI50 (COLO 205) | GI50 (SW-620) | GI50 (A498) | GI50 (LOX IMVI) | GI50 (DLD-1) | GI50 (ACHN) | GI50 (SK-OV-3) | GI50 (HCT-15) [µM] | GI50 (HCT-116) | GI50 (SK-MEL-28) | GI50 (MDA-N) | GI50 (T47D) | GI50 (SR) | GI50 (MCF7) | GI50 (MDA-MB-231) |
| --- | --- | --- | --- | --- | --- | --- | --- | --- | --- | --- | --- | --- | --- | --- | --- | --- | --- | --- | --- | --- |
| CC1C[C@H](OC(N)=O)C(C)CC1=O (some centres not stated) | > 100 µM (inactive) | > 100 µM (inactive) | > 100 µM (inactive) | > 100 µM (inactive) | > 100 µM (inactive) | > 100 µM (inactive) | > 100 µM (inactive) | > 100 µM (inactive) | > 100 µM (inactive) | > 100 µM (inactive) | > 100 µM (inactive) | > 100 µM (inactive) | > 100 | > 100 µM (inactive) |  |  |  |  |  |  |
| Cn1cc(NC(=O)c2cc(NC(=O)CCCCCCCCCC(=O)Nc3cc(C(=O)Nc4cc(C(=O)NCCC(=N)N)n(C)c4)n(C)c3)cn2C)cc1C(=O)NCCC(=N)N |  | 32.2 µM (inactive) | 32.1 µM (inactive) | 0.971 µM (active) | 31.2 µM (inactive) | 21.2 µM (inactive) | 32 µM (inactive) |  | 31 µM (inactive) | 34.2 µM (inactive) | 23.5 µM (inactive) | 92 µM (inactive) | 39.3 | 24.5 µM (inactive) | 11.9 µM (inactive) |  |  |  |  |  |
| C/C(CC(=O)Nc1cccc(Cl)c1C)=N\NC(N)=S | > 100 µM (inactive) |  | > 100 µM (inactive) | > 100 µM (inactive) | > 100 µM (inactive) | > 100 µM (inactive) | > 100 µM (inactive) | > 100 µM (inactive) | > 100 µM (inactive) | > 100 µM (inactive) |  | > 100 µM (inactive) |  | > 100 µM (inactive) | > 100 µM (inactive) |  |  |  |  |  |
| Fc1ccc(/N=C/C=C/Nc2ccc(F)cc2)cc1 | 2.26 µM (inactive) | 14 µM (inactive) | 15.8 µM (inactive) | 16.4 µM (inactive) | 0.509 µM (active) | 1.55 µM (inactive) | 3.32 µM (inactive) | 15.5 µM (inactive) | 0.817 µM (active) |  | 0.11 µM (active) | 15.3 µM (inactive) | 0.31 | 3 µM (inactive) | 7.5 µM (inactive) | 2.75 µM (inactive) | 6.37 µM (inactive) | 2.44 µM (inactive) | 11.7 µM (inactive) | 15.8 µM (inactive) |
| CCOP12(OCC)NC(=O)OC1(C(F)(F)F)c1ccccc1O2 (configuration not stated) | > 100 µM (inactive) | > 100 µM (inactive) | > 100 µM (inactive) | > 100 µM (inactive) | > 100 µM (inactive) |  |  |  | > 100 µM (inactive) | > 100 µM (inactive) | > 100 µM (inactive) | > 100 µM (inactive) | > 100 | > 100 µM (inactive) | > 100 µM (inactive) |  |  |  |  |  |
| CCOC(=O)C(=O)/C(=C\NC(=S)Nc1ccccc1Cl)C(=O)OCC | > 100 µM (inactive) | > 100 µM (inactive) | > 100 µM (inactive) | > 100 µM (inactive) | > 100 µM (inactive) | > 100 µM (inactive) | > 100 µM (inactive) | > 100 µM (inactive) | > 100 µM (inactive) |  | > 100 µM (inactive) | > 100 µM (inactive) | > 100 | > 100 µM (inactive) | > 100 µM (inactive) | > 100 µM (inactive) | > 100 µM (inactive) | > 100 µM (inactive) | > 100 µM (inactive) | > 100 µM (inactive) |
| COC(=O)CC[C@@H](C)[C@H]1CC[C@H]2[C@@H]3CC[C@@H]4C[C@H](O)CC[C@]4(C)[C@H]3CC[C@]12C | 15 µM (inactive) | 18.6 µM (inactive) | 18.2 µM (inactive) | 17 µM (inactive) | 17.9 µM (inactive) | 19.5 µM (inactive) | 29.6 µM (inactive) | 20.5 µM (inactive) | 18.7 µM (inactive) |  | 20.7 µM (inactive) | 20.8 µM (inactive) | 17.1 | 17.1 µM (inactive) | 19 µM (inactive) | 19.1 µM (inactive) | 19.4 µM (inactive) | 14.9 µM (inactive) | 18.3 µM (inactive) | 17.8 µM (inactive) |
| CCN(CC)c1ccc2cc(C(=O)Nc3ccc(C)cc3)c(=N)oc2c1 | > 100 µM (inactive) | > 100 µM (inactive) | > 100 µM (inactive) | > 100 µM (inactive) | > 100 µM (inactive) | > 100 µM (inactive) | > 100 µM (inactive) | > 100 µM (inactive) | > 100 µM (inactive) |  | > 100 µM (inactive) | > 100 µM (inactive) | > 100 | > 100 µM (inactive) | > 100 µM (inactive) | > 100 µM (inactive) | > 100 µM (inactive) | > 100 µM (inactive) | > 100 µM (inactive) | > 100 µM (inactive) |
| O=C1[C@H](c2ccccc2)C2c3ccccc3CCN12 (some centres not stated) | > 10 µM (inactive) | > 10 µM (inactive) | > 10 µM (inactive) | 0.897 µM (active) | > 10 µM (inactive) | > 10 µM (inactive) | > 10 µM (inactive) | > 10 µM (inactive) | > 10 µM (inactive) |  | > 10 µM (inactive) | > 10 µM (inactive) | > 10 | > 10 µM (inactive) | > 10 µM (inactive) | > 10 µM (inactive) | > 10 µM (inactive) | > 10 µM (inactive) | > 10 µM (inactive) | > 10 µM (inactive) |
| CC1=NN(c2ccccc2)C(=O)/C1=C\c1ccc([N+](=O)[O-])cc1 | 23.3 µM (inactive) | 32.1 µM (inactive) | 19.5 µM (inactive) | 23.9 µM (inactive) | 21.7 µM (inactive) | 17.7 µM (inactive) | 30.3 µM (inactive) | 11.4 µM (inactive) | 21.1 µM (inactive) | 36 µM (inactive) | 31.5 µM (inactive) | 24.1 µM (inactive) | 29.6 |  | 36.6 µM (inactive) |  |  |  |  |  |
| C=C1CCC2(C(C)=O)COC1(C)O2 (configuration not stated) | > 100 µM (inactive) | > 100 µM (inactive) | > 10 µM (inactive) | > 100 µM (inactive) | > 100 µM (inactive) | > 100 µM (inactive) | > 100 µM (inactive) |  | > 100 µM (inactive) | > 100 µM (inactive) | > 100 µM (inactive) | > 100 µM (inactive) | > 100 | > 100 µM (inactive) | > 100 µM (inactive) |  |  |  |  |  |
| O=S(O)CCCCCSSCCCCSSCCCCCS(=O)O |  | > 100 µM (inactive) | > 100 µM (inactive) | 27.7 µM (inactive) | > 100 µM (inactive) | > 100 µM (inactive) | > 100 µM (inactive) | > 100 µM (inactive) | > 100 µM (inactive) | > 100 µM (inactive) | > 100 µM (inactive) | > 100 µM (inactive) | > 100 |  | > 100 µM (inactive) |  |  |  |  |  |
| C(=N\Cc1ccccc1)/c1ccccc1-c1ccccc1/C=N/Cc1ccccc1 | 2.36 µM (inactive) | > 10 µM (inactive) | > 10 µM (inactive) | > 9.62 µM (inactive) | > 7.23 µM (inactive) | > 10 µM (inactive) | > 10 µM (inactive) | > 10 µM (inactive) | 5.42 µM (inactive) |  | > 8.53 µM (inactive) | > 10 µM (inactive) | 5.47 | 2.86 µM (inactive) | > 7.57 µM (inactive) | 5.33 µM (inactive) | 4.99 µM (inactive) | 3.26 µM (inactive) | 3.82 µM (inactive) | > 10 µM (inactive) |
| Cc1ccc(/C=C/C(=O)c2sc(-c3nc(C)c(C(=O)/C=C/c4ccc(C)cc4)s3)nc2C)cc1 | > 100 µM (inactive) | > 100 µM (inactive) | > 100 µM (inactive) | > 100 µM (inactive) | > 100 µM (inactive) | > 100 µM (inactive) | > 100 µM (inactive) | > 100 µM (inactive) | > 100 µM (inactive) | > 100 µM (inactive) | > 100 µM (inactive) | > 100 µM (inactive) | > 100 |  | > 100 µM (inactive) |  |  |  |  |  |
| OC1CCCCCCCCCCC1[S+]1CCCC1.O[B-](F)(F)F (configuration not stated) | > 100 µM (inactive) | > 100 µM (inactive) | > 100 µM (inactive) | 42 µM (inactive) | > 100 µM (inactive) | 62.7 µM (inactive) | > 100 µM (inactive) | > 100 µM (inactive) | > 100 µM (inactive) |  | > 100 µM (inactive) | > 100 µM (inactive) | > 100 | > 100 µM (inactive) | 68.4 µM (inactive) | > 100 µM (inactive) | > 100 µM (inactive) | > 100 µM (inactive) | > 100 µM (inactive) | > 100 µM (inactive) |
| C[N+](C)(C)C(C1=CCCC1=O)c1ccccc1 (configuration not stated) | 25.8 µM (inactive) | 20.3 µM (inactive) | 21 µM (inactive) | 19.2 µM (inactive) | 18.3 µM (inactive) | > 100 µM (inactive) | 21.5 µM (inactive) | > 100 µM (inactive) | 18.7 µM (inactive) |  | 25.4 µM (inactive) | > 100 µM (inactive) | 20.2 | 16.4 µM (inactive) | 30.3 µM (inactive) | 33.4 µM (inactive) | 43.8 µM (inactive) | 15.3 µM (inactive) | 21.8 µM (inactive) | 29 µM (inactive) |
| COC(=O)Cc1ccc2c(cnn2-c2ccccc2)c1OC | > 10 µM (inactive) | > 10 µM (inactive) | > 10 µM (inactive) | > 10 µM (inactive) | > 10 µM (inactive) | > 10 µM (inactive) | > 10 µM (inactive) | > 10 µM (inactive) | > 10 µM (inactive) |  | > 10 µM (inactive) | > 10 µM (inactive) | > 10 | > 10 µM (inactive) | > 10 µM (inactive) | > 10 µM (inactive) | > 10 µM (inactive) | > 10 µM (inactive) | > 10 µM (inactive) | > 10 µM (inactive) |
